By pIC50 is commonly meant −log10 of the IC50, conventionally taken in molar units.

The test has as its target T1, human GPR84 receptor (Homo sapiens, UniProt Q9NQS5).
T1 construct: frozen aliquots prepared by acCELLerate; host or cells: CHO-K1
In words: cAMP HTRF assay for identification of cellular GPR84 antagonists. To be noted: CHO-K1 cells stably expressing human GPR84; Forskolin plus agonist 6-OAU; cAMP HTRF readout; average or median values. The format is cell-based. The text has this:
cAMP HTRF® Assay for Identification of Cellular GPR84 Antagonists
By using a Homogenous Time-Resolved Fluorescence (HTRF®) based assay (#62AM5PEJ, Cisbio, Condolet, France) the inhibition of the Gi-coupled GPR84 receptor can be detected. CHO-K1 cells stably expressing human GPR84 receptor (purchased from DiscoveRx, now Eurofins) were used and treated with Forskolin (F6886, Sigma, Germany) to stimulate membrane adenylyl cyclases and thereby unspecific cAMP formation. Activation of the Gi-coupled GPR84 by a natural or small molecule agonist (e.g. 6-n-octyl aminouracile, inhouse) results in inhibition of cellular cAMP formation which can be released again by antagonists to this receptor. Detection and quantification of cellular cAMP levels in this HTRF assay is achieved by interaction between a fluorescent cAMP tracer (cAMP-d2) and an Eu-cryptate labelled anti-cAMP antibody. Following excitation at 337 nm this pairing allows for the generation of a fluorescence resonance energy transfer (FRET) between the partners and results in FRET induced emissions at 665 nm and 620 nm, the latter representing background signal by Eu-cryptate labelled anti-cAMP antibody. Maximal signal is obtained in the absence of any cellular cAMP (no competition for the binding of the tracer to the antibody). Given the combination of the Gi coupling properties of GPR84 and the competitive nature of the detection system agonist treatment should result in an increase in the HTRF signal due to lowered cAMP levels. Any signal decrease in the presence of Forskolin, agonist and compound is indicative of antagonist mediated abrogation of GPR84 signalling.
For the assay, frozen aliquots of CHO-K1 cells expressing hGPR84 (prepared by acCELLerate, Hamburg, Germany) were thawed and a cell suspension (1.67E+06 cells/mL) in assay media (Ham's F12 Nutrient Mix, Thermo Fisher Scientific, Waltham, USA; 5% fetal calf serum, Biomol, Hamburg, Germany) containing cAMP-d2 (dilution 1:20, supplied with the kit #62AM5PEJ, Cisbio, Condolet, France) was prepared. After recovery of cells for 20 minutes at 37° C., 3 μL/well cell suspension including cAMP-d2 were added to a pre-dispensed assay plate (Greiner Bio-One, Kremsmuenster, Austria) containing 50 nl/well test compound in 100% DMSO or 100% DMSO as control. This was followed by a 30 minutes incubation step at room temperature. […] The reaction was stopped by addition of 3 μL/well lysis buffer containing cAMP Eu-Cryptate antibody (dilution 1:20) (both supplied with the kit #62AM5PEJ, Cisbio, Condolet, France). To enable complete lysis, plates were incubated for 60 minutes at room temperature before measurement in an HTRF reader, e.g. a PHERAstar (BMG Labtech, Ortenberg, Germany).
From the fluorescence emissions at 665 nm (FRET) and at 620 nm (background signal of Eu-cryptate) the ratio (emission at 665 nm divided by emission at 620 nm×10000) was calculated and the data were normalized (reaction without test compound, only 100% DMSO=0% inhibition; all other assay components except agonist=100% inhibition). For dose response testing on the same microtiter plate, compounds were tested at 11 different concentrations in the range of 20 μM to 0.07 nM (20 μM, 5.7 μM, 1.6 μM, 0.47 μM, 0.13 μM, 38 nM, 11 nM, 3.1 nM, 0.89 nM, 0.25 and 0.07 nM; dilution series prepared before the assay at the level of the 100-fold conc. stock solutions by serial 1:3.5 dilutions in 100% DMSO) in duplicate values for each concentration. IC50 values were calculated by 4-parameter fitting using a commercial software package (Genedata Screener, Basel, Switzerland).
Examples were tested in selected biological assays one or more times. […]

pIC50: −log10 of the molar value.

T1 sequence (Q9NQS5 whole entry): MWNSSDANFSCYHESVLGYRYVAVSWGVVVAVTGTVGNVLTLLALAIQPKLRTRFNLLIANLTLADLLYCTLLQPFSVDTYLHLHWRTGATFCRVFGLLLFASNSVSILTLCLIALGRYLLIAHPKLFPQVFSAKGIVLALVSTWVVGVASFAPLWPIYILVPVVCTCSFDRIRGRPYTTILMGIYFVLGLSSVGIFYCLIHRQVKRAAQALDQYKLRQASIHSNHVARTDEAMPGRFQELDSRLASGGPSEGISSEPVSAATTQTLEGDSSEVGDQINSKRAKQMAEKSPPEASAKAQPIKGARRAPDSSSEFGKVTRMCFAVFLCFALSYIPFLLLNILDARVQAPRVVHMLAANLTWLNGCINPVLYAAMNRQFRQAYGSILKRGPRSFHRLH

With `Cc1cc2oc(C(=O)NC[C@@H]3COCCO3)c(C(F)(F)F)c2c2nn(C[C@H]3COCCO3)cc12` [Example 39, N-{[(2R)-1,4-dioxan-2-yl]methyl}-2-{[(2S)-1,4-dioxan-2-yl]methyl}-4-methyl-8-(trifluoromethyl)-2H-furo[2,3-g]indazole-7-carboxamide], the pIC50 was 7.49.

`Cc1c(C(=O)NC[C@@H]2CCCO2)oc2ccc3cn(Cc4ccccn4)nc3c12` [Example 40, 8-methyl-2-(pyridin-2-ylmethyl)-N-[(2S)-tetrahydrofuran-2-ylmethyl]-2H-furo[2,3-g]indazole-7-carboxamide]: the pIC50 was 7.80. On to `O=C(NC[C@@H]1CCCO1)c1oc2ccc3cn(Cc4ccccn4)nc3c2c1CO` [Example 41, 8-(hydroxymethyl)-2-(pyridin-2-ylmethyl)-N-[(2S)-tetrahydrofuran-2-ylmethyl]-2H-furo[2,3-g]indazole-7-carboxamide], for which the pIC50 was 6.28.

Take `O=C(NC[C@@H]1CCCO1)c1cc2c(ccc3cn(Cc4ccccn4)nc32)o1` [Example 42, 2-(pyridin-2-ylmethyl)-N-[(2S)-tetrahydrofuran-2-ylmethyl]-2H-furo[2,3-g]indazole-7-carboxamide]: the negative logarithm of the IC50 (pIC50) was 6.06. Consider `O=C(NC[C@@H]1CCCO1)c1cc2c(cc(Br)c3cn(Cc4ccccn4)nc32)o1` [Example 43, 4-bromo-2-(pyridin-2-ylmethyl)-N-[(2S)-tetrahydrofuran-2-ylmethyl]-2H-furo[2,3-g]indazole-7-carboxamide], for which the pIC50 was 5.31. As for `CCc1cc2oc(C(=O)NC[C@@H]3COCCO3)c(C)c2c2nn(C[C@H]3COCCO3)cc12` [Example 44, N-{[(2R)-1,4-dioxan-2-yl]methyl}-2-{[(2S)-1,4-dioxan-2-yl]methyl}-4-ethyl-8-methyl-2H-furo[2,3-g]indazole-7-carboxamide], the pIC50 was 7.27.
